Legend:
[1] = system: HS5, RWPE-1, C4–2B, PC3-ML, ARCaP-M and RM1-BM cells; assay: Colony formation (clonal) assay; assay type: cell-based, human and murine; details: 50 μM, six repeated doses over a two-week period, tumor and non-tumor cells
Description: 200 cells/well were seeded in triplicate in 6-well plates. […] The colonies were fixed with ice-cold Methanol and stained with 0.5% crystal violet and counted.
Fig. 1. Primary characterization of IVMT-Rx-4. A) Chemical structure (upper panel) and synthesis scheme (lower panel). […] All proteins were extracted, and Western blotting was performed immediately after heating. Quantifications were obtained in the absence (control) or presence of IVMT-Rx-4 and values are presented as percentage of RT (room temperature) normalized for the experimental groups (control, IVMT-Rx-4). SOD (Superoxide dismutase) was used as an endogenous control. […] Colonies were stained with crystal violet and counted (n = 3 ± SD; ns: non-significant). […] Invaded cells were stained with crystal violet. Top panel: representative photograph of invaded cells under different experimental settings. Bottom panel: graphical representation of number of invaded cells/field for different cell lines (n = 3 ± SD; * p < 0.05).

[2] = Thermodynamic solubility in PBS, pH 7.4; assay type: physicochemical
[3] = Log D by shake flask (pH 7.4); assay type: physicochemical; details: pH 7.4, octanol/phosphate buffer
Description: Sodium Phosphate buffer pH 7.4 (10 mM) was used as the aqueous phase and octanol was used as the organic phase. […] The sealed plate was incubated at 25 °C with continuous agitation at 2000 rpm for 2 hrs. Samples were then separated by centrifugation, diluted 100-fold with a mixture of H20 and acetonitrile containing internal standard, and analyzed via LC-MS/MS. The Log D value was calculated using the following equation: […]

Caco-2 cell monolayer = assay: Caco-2 bidirectional permeability; assay type: in vitro ADME
Description: To prepare the Caco-2 cell monolayer, 50 µL and 25 µL of cell culture medium (Dulbecco’s modified Eagle’s medium, DMEM) were added to each well of the inserts and reservoir, respectively, within a 96-well HTS Transwell plate (Corning, NY, USA). The plate was incubated at 37 °C and 5% CO2 for 1 hr. prior to cell seeding. Caco-2 cells were then diluted to 6.86 x 10^5 cells/mL using culture medium and 50 µL of cell suspension were seeded into the plate, and incubated at 37 °C, 5% CO2, and 95% relative humidity for 14-18 days. During this time, the cells were cultivated with media replacements occurring every other day. Cells were allowed to grow and differentiate and the integrity of the Caco-2 cell monolayer was evaluated by measurement of transepithelial electrical resistance (TEER) using a Millicell Epithelial Volt-Ohm measuring system (Millipore, USA).
Prior to the assay, the established monolayer was washed twice with pre-warmed HBSS and incubated at 37 °C for 30 minutes. A bidirectional permeability assay was performed simultaneously using two different plates as described previously (Supplementary Reference: Cui Y, Desevaux C, Truebenbach I, Sieger P, Klinder K, Long A, Sauer A. A Bidirectional Permeability Assay for beyond Rule of 5 Compounds. Pharmaceutics. 2021 Jul 27;13(8):1146. doi: 10.3390/pharmaceutics13081146. PMID: 34452112; PMCID: PMC8400635.): one assessed permeability from the apical to the basolateral side, while the other assessed from the basolateral to the apical side. […] For apical to basolateral permeability, 108 µL of working solution was loaded into the apical compartment, whereas 308 µL of working solution was added to the basolateral compartment for basolateral to apical permeability. The samples collected from donor and receiver compartment were mixed with 72 µL transport buffer and 240 µL of acetonitrile containing internal standard (IS, 100 nM alprazolam, 200 nM Caffeine and 100 nM tolbutamide), centrifuged at 1000 rpm for 10 minutes. […] In doing so, the following equations were used: […]
Where, Papp is apparent permeability (cm/s x 10^-6), dQ/dt is the rate of drug transport (pmol/second), A is the surface area of the membrane (cm^2), and D0 is the initial donor concentration (nM; pmol/cm^3). (B-A) indicates basolateral to apical permeation, where (A-B) indicates apical to basolateral.

[4] = Stability in liver microsomes with NADPH and UDPGA; assay type: in vitro ADME; details: all species (human, monkey, dog, rat, mouse), NADPH and UDPGA added
Description: Test samples were incubated at 37 °C, and Verapamil was used as a positive control. Samples were drawn from the incubation solution at different timepoints, centrifuged, then diluted with ultra-pure H20 and analyzed via LC-MS/MS. The natural logarithm of the remaining parent drug at each timepoint was plotted against incubation time, and the following equation was used to calculate the in vitro half-life:
in vitro t1/2 = -(0.693/k), where k is the rate constant.

CYP3A4 = target: T1, CYP3A4 (Homo sapiens, UniProt P08684); assay: Time dependent CYP inhibition (TDI); assay type: in vitro ADME; details: human liver microsomes, with or without NADPH
T1 construct: in the presence of human liver microsomes; from tissue; host or cells: human liver microsomes
T1 sequence (P08684 whole entry): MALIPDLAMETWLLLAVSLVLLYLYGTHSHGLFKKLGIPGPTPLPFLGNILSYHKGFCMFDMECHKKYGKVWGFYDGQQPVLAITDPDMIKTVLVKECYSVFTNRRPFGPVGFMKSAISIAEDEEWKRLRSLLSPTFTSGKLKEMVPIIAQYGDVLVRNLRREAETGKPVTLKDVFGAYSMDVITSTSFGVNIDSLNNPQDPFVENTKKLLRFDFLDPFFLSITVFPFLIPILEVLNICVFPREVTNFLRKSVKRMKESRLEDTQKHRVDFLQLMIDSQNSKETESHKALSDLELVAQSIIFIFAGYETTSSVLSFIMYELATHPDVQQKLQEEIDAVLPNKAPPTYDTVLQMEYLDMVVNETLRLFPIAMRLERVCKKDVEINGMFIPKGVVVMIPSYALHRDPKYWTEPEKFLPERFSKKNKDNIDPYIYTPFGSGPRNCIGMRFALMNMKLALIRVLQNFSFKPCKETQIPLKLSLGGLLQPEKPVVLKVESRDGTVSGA
Description: Then, the specific CYP3A4 substrate was added, and aliquots were collected at various time points. Samples were then diluted with ultra-pure water and analyzed by LC-MS/MS. Area ratio and remaining Activity (%) were calculated as above and IC50 values was calculated using Excel XLfit 5.3.1.3.

PXR = target: T2, PXR (Homo sapiens, UniProt O75469); assay: PXR assay using DPX2 cells; assay type: cell-based
T2 construct: expressed in transfected cells; host or cells: DPX2 cells
T2 sequence (O75469 1-434): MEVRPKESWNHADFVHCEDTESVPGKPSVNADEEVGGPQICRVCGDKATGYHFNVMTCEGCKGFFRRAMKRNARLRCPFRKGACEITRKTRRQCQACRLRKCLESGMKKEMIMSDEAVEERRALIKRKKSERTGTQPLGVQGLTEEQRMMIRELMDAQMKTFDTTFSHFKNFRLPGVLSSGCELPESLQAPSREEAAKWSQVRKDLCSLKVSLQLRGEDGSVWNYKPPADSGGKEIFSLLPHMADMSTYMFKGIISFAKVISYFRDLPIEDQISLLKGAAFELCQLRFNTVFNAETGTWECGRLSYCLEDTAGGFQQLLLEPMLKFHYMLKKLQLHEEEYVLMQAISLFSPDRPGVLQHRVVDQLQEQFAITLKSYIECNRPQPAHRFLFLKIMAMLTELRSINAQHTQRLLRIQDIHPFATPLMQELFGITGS
Description: DPX2 cells were initially cultured in T-75 flasks and maintained at 37°C in a humidified incubator with 5% CO2 and 95% relative humidity. Cells were allowed to reach 70-80% confluence prior to subculture. Next, cells were transferred to a culture plate and incubated for an additional 24 hours to allow for attachment and recovery prior to treatment. […] Cell viability and luciferase activity were measured using the CellTiter-Fluor™ Cell Viability Assay and One-GloTM Luciferase Assay System, respectively. Luciferase activity was normalized to viable number and fold activation of PXR was calculated using the following equation: […]

[5] = system: Salmonella typhimurium TA98 & TA100; assay: Mini-Ames assay; assay type: cell-based
Description: The mini-AMES assay was performed in Pharmaron, Inc. following the standard protocol as developed by the in-house scientist. […] The assay was conducted in the presence or absence of the S9 mix along with concurrent negative/solvent control and positive controls.

RM1-BM-Luc cells = assay: Combination and survival study, RM1-BM-Luc syngeneic model; assay type: in vivo, C57BL/6 mice; details: RM1-BM-Luc in C57BL/6, day 14, IVMT-Rx-4 30 mg/kg and/or Docetaxel 5 mg/kg 3X a week for two weeks
Description: (§1) Both syngeneic (C57BL/6) and athymic nude mice were used for survival studies. Tumor cells (RM1-BM-Luc or PC3-ML-Luc) were injected intracardially in a cohort of 40 animals. […] In the combination groups, both regimens were administered 3X a week for two-weeks at the same dose as a single therapy. Animals were imaged periodically and maintained until euthanization was required.
(§2) Fig. 5. […] A and B) RM1-BM-Luc (A) or PC3-ML-Luc (B) cells were implanted I.C. in C57BL/6 and athymic nude mice, respectively. […] BLI images were used to detect bone metastases (the percentage incidence of bone metastases in animals was calculated at a single time point, day 14). Values are presented at the bottom panel of the respective group (red, number of animals positive for metastasis and black, total number of experimental animals). C and D) Animals were kept until mandated euthanasia based on IACUC guidelines, considered as disease associated death. The Kaplan–Meier survival curves were generated using GraphPad in both models as described in (A) and (B), respectively. E and F) Log-rank test was performed and values between different experimental groups are presented.

PC3-ML-Luc cells = assay: Combination and survival study, PC3-ML-Luc model; assay type: in vivo; details: PC3-ML-Luc in athymic nude mice, day 14, IVMT-Rx-4 30 mg/kg and/or Docetaxel 5 mg/kg 3X a week for two weeks
Description: as §1, §2

SMILES	cell proliferation (colony formation) [1]	Thermodynamic solubility in PBS, pH 7.4 [2] [mg/ML]	Log D by shake flask (pH 7.4) [3]	Caco-2 Efflux ratio (Caco-2 cell monolayer; B-A/A-B)	Caco-2 Bidirectional A-B (Caco-2 cell monolayer; apical to basolateral, 10 µM) [×10⁻⁶ cm/s]	Caco-2 Bidirectional B-A (Caco-2 cell monolayer; basolateral to apical, 10 µM) [×10⁻⁶ cm/s]	t½ in liver microsomes [4]	Time-dependent inhibition (TDI), CYP3A4 (CYP3A4)	PXR assay (PXR)	Mini-Ames Assay (2-strain option: TA98 & TA100) [5]	bone metastases, Incident/Total number tested (RM1-BM-Luc cells)	bone metastases, Incident/Total number tested (PC3-ML-Luc cells)
Cc1cc(NC(=O)c2nc3nc4c(c(=O)n3[nH]2)CCC4)c(C)cc1NC(=O)CCc1nnc(-c2ccccc2)o1 [PDZ1i, reference compound]	did not inhibit cell proliferation	10	0.5	300	0.04	11.5	Minimal degradation: > 4 hr t½ in all species	No TDI	No induction	Negative	–	–
CC(=O)O[C@@]12CO[C@@H]1C[C@H](O)[C@@]1(C)C(=O)[C@H](O)C3=C(C)[C@@H](OC(=O)[C@H](O)[C@@H](NC(=O)OC(C)(C)C)c4ccccc4)C[C@@](O)([C@@H](OC(=O)c4ccccc4)[C@H]21)C3(C)C [Docetaxel, reference compound]	–	–	–	–	–	–	–	–	–	–	5/8	3/8
